# From publication PMC2118486 (The Journal of Experimental Medicine, 2007)
# Legend:
# [1] = system: purified peritoneal mast cells (Mc-cpa); assay type: in vitro ADME, mouse; settings: Mc-cpaY356L,E378A mast cells, 2 μM ionomycin, 37°C, 60 min; reduced (DTT/IAA) sample; MALDI-TOF
# [2] = mouse, 37°C, up to 60 min
Substance,internal cleavage of S6b [1],not cleaved [2]
sarafotoxin 6b [S6b],reaction products consistent with the masses of 1–13 and 1–14 fragments of S6b,
Cys-Ser-Cys-Ser-Ser-Leu-Met-Asp-Lys-Glu-Cys-Val-Tyr-Phe-Cys-His-Leu-Asp-Ile-Ile-Trp,,ET-1 (1–21) was also maintained
